A word on the IC50: it is the midpoint of a concentration-inhibition curve. Higher therefore signals weaker potency in that assay.

Bridges are numbered along the chain shown (N, C = ends). Where no end group is shown, it is not given here. Bounds are passed on as bounds.

For one series, the target named is T1, human PAC1 receptor (Homo sapiens, UniProt P41586).
T1 construct: SHSY-5Y (human neuroblastoma cell line) and RG-2 (rat glioma cell line) cells endogenously express human and rat PAC1 receptors, respectively; endogenous in cells; host or cells: SHSY-5Y human neuroblastoma cells
T1 sequence (P41586 21-468): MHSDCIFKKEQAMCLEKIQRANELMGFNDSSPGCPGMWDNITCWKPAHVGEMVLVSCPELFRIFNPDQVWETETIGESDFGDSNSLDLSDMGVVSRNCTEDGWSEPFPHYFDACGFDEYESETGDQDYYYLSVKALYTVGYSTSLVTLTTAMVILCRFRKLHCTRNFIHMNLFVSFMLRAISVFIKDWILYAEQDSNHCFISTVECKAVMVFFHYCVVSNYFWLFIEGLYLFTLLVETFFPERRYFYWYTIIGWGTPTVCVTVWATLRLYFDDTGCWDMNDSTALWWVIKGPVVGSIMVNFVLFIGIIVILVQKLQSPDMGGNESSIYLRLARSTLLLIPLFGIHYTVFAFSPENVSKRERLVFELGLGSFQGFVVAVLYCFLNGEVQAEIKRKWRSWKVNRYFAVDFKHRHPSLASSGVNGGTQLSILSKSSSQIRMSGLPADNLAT
In words: LANCE Ultra cAMP accumulation antagonist assay in SHSY-5Y cells.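 Note: inhibition of cAMP accumulation evoked by PAC1 agonist at its EC80 in SHSY-5Y cells endogenously expressing receptor, 30 min preincubation then 15 min agonist, TR-FRET readout.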 The series is classed as cell-based. A general note: TR-FRET usually uses a lanthanide donor and a delayed reading to cut background.

Series [1] has as its target T2, rat PAC1 receptor (Rattus norvegicus, UniProt P32215).
T2 construct: SHSY-5Y (human neuroblastoma cell line) and RG-2 (rat glioma cell line) cells endogenously express human and rat PAC1 receptors, respectively; endogenous in cells; host or cells: RG-2 rat glioma cells
T2 sequence (P32215 20-523): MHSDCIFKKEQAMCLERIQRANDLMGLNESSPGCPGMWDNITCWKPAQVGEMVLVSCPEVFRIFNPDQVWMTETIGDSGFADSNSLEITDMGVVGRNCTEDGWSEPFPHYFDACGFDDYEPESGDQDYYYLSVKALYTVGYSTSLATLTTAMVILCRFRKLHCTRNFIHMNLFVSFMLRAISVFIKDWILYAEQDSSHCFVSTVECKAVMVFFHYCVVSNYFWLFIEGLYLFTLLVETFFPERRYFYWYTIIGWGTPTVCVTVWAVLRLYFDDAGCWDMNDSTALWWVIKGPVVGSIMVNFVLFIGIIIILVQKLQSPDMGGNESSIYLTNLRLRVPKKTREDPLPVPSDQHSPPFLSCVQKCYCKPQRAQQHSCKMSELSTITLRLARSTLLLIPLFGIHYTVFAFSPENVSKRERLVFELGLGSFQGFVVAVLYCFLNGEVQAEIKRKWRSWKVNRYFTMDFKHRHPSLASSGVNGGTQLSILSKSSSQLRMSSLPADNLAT
The series is described as follows: LANCE Ultra cAMP accumulation antagonist assay in RG-2 cells.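 Note: RG-2 rat glioma cells endogenously expressing PAC1, test peptide preincubated 30 min, then PAC1 agonist added at its EC80 for 15 min, cAMP accumulation read by LANCE Ultra.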 In kind it is cell-based.
Description: In order to determine the potency of peptide antagonists at the PAC1 receptor, functional cAMP accumulation assays using LANCE Ultra cAMP assay kit to measure the agonist and antagonist activity of PAC1 peptides were used. SHSY-5Y (human neuroblastoma cell line) and RG-2 (rat glioma cell line) cells endogenously express human and rat PAC1 receptors, respectively. Agonist activity of PAC1 peptides was tested by incubating with SHSY-5Y at 2,000 cells per well or RG-2 at 5,000 cells per well for 15 minutes at room temperature. PAC1 receptor agonist PACAP38 or maxadilan was included as a positive control. The reaction was stopped by adding detection mixture, europium (Eu) chelate-labeled cAMP tracer and cAMP-specific monoclonal antibodies labeled with the ULight™ dye, to all wells followed by a 60-minute incubation at room temperature. The assay plates were then read on an EnVision instrument at an emission wavelength of 665 and 615 nm and data were analyzed using Genedata Screener or GraphPad Prism software. A similar procedure was used in the antagonist assays by using a fixed concentration of PAC1 agonist. The concentrations of agonists were chosen based on their ECK) values at PAC1 receptors in SHSY-5Y or RG-2 cells. SHSY-5Y or RG-2 cells were added into 96-well half-area white plates. Serially diluted PAC1 peptides at ten concentrations were added and incubated for 30 minutes at room temperature. PAC1 agonist at EC80 concentration was then added and further incubated for 15 minutes at room temperature. The reaction was stopped by adding detection mixture to all wells followed by a 60-minute incubation at room temperature. The assay plates were read and analyzed the same way as that of agonist assay. Cells, agonists, and PAC1 peptides were prepared in freshly made assay buffer (F-12, 0.5 mM IBMX, 0.1 or 0.4% BSA (pH 7.4)). Detection mixture was made by mixing a 1/50 dilution of the Eu-cAMP tracer stock solution in cAMP Detection Buffer and a 1/150 dilution of the ULight-anti-cAMP stock solution in cAMP Detection Buffer. Europium (Eu) chelate-labeled cAMP tracer, cAMP-specific monoclonal antibodies labeled with the ULight™ dye, BSA, and detection buffer were provided in LANCE Ultra cAMP Kit from PerkinElmer

A short description of another series: in vitro. Conditions: rat, plasma.
The next series addresses T3, PAC1 (Rattus norvegicus, UniProt P32215).
T3 construct: Naive male Sprague Dawley® rats aged 8-12 weeks at the time of the study were purchased from Charles River Laboratories; tissue Charles River Laboratories; host or cells: live male Sprague Dawley rats; dermal blood flow on abdominal skin
T3 sequence (P32215 20-523): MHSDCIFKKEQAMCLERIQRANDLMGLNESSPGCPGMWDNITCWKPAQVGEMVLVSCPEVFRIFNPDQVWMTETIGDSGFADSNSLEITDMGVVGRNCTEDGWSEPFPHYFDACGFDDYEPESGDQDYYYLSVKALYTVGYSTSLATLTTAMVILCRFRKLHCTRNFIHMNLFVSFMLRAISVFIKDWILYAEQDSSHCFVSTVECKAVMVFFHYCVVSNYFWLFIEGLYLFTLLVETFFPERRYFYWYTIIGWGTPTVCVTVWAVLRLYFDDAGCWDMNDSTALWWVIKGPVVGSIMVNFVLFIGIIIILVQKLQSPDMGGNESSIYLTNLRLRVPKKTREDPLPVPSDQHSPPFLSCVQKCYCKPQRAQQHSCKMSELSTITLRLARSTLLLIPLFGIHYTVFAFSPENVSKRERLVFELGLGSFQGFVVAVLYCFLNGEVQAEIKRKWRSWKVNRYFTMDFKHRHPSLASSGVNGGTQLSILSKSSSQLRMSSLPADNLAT
In words: Rat maxadilan-induced increase in blood flow (MIIBF) PD model, laser Doppler imaging. The series is classed as in vivo. As for the experimental part:
PAC1 peptide antagonists were also evaluated in an in vivo pharmacodynamic model—a model of maxadilan-induced increase in blood flow.
Naive male Sprague Dawley® rats aged 8-12 weeks at the time of the study were purchased from Charles River Laboratories. Animals were group-housed in non-sterile, ventilated micro-isolator housing in Amgen Assessment and Accreditation of Laboratory Animal Committee (AAALAC)-accredited facility. Animals had ad libitum access to pelleted feed (Harlan Teklad 2020X, Indianapolis, IN) and water (on-site generated reverse osmosis) via automatic watering system.
All PAC1 peptides were tested in a rat maxadilan-induced increase in blood flow (MIIBF) pharmacodynamic (PD) model with a laser Doppler imaging. A dosing solution of maxadilan (Bachem, H6734.0500) was prepared fresh daily by diluted maxadilan stock solution (0.5 mg/mL) in 1× PBS to the final concentration of 0.5 μg/mL. All tested peptides were prepared in 1× PBS at different concentrations depend on the dose required for the experiment and given in a single bolus i.v. or s.c. injection. A laser Doppler imager (LDI-2, Moor Instruments, Ltd, Wilmington, Del.) was used to measure dermal blood flow (DBF) on the shaved skin of the rat abdomen with a low-power laser beam generated by a 633 nm helium-neon bulb. The measurement resolution was 0.2 to 2 mm, with scanning distances between the instrument aperture and the tissue surface of 30 cm. In this report, DBF was measured and expressed as % change from baseline [100×(individual post-CAP flux-individual baseline flux)/individual baseline flux] and further calculated to % Inhibition to quantify the magnitude of drug effect [Mean of vehicle % change from BL−individual drug treated rat % change from BL)/Mean of vehicle % change from BL].
On the test day, following anesthetization with propofol, the rat's abdominal area was shaved and each animal was placed in a supine position on a temperature-controlled circulating warm-water pad to maintain a stable body temperature during the study. After a 10 to 15 minute stabilization period, a rubber O-ring (0.925 cm inner diameter, O-Rings West, Seattle, Wash.) was placed on the rat abdomen without directly positioning it over a visible blood vessel while the rat placed in a supine position on a temperature-controlled circulating warm-water pad to maintain a stable body temperature during the study. After placement of an O-ring on the selected area, a baseline (BL) DBF measurement was taken. After the BL scan, PAC1 peptides were administrated either 5 min for i.v., or 15 min for s.c. then followed by 20 μL (in 0.5 μg/mL) intradermal injection of maxadilan at the center of the O-ring. The post-maxadilan DBF was measured at 30 min and the post peptides time was 35 min for i.v. and 45 min for s.c. respectively. The O-ring serves as an area of interest in which the DBF will be analyzed within the O-ring.
All DBF results were expressed as the mean±SEM. A one-way ANOVA followed by Dunnett's Multiple Comparison Test (MCT) was used to assess the statistical significance of PAC1 peptides effects relative to the vehicle within the study. A p<0.05 was used to determine significance between any two groups.

The conditions of series [2]: rat plasma, 37° C., 0 h (baseline).
Description: (§1) To model degradation in blood, PAC1 peptides of the present application were incubated in vitro with rat plasma. The stability analysis was conducted in a manner similar to as previously described by Souverain et al. (J. of Pharmaceutical and Biomedical Analysis, 35 (2004) 913-920).
(§2) Briefly, PAC1 peptides were spiked into rat plasma and incubated at 37° C. for up to 6 hours. Employing the reverse stability technique for various time points, plasma samples were quenched by the addition of perchloric acid in water containing internal standard (IS) and vortexed undergoing protein precipitation extraction (PPE). Following the vortex mix, samples were centrifuged and the supernatant containing PAC1 peptide and IS was subsequently analyzed using a liquid chromatography mass-spectrometry (LC-MS) system (Sciex® API 5500). The peak area ratio of intact PAC1 peptide to IS was determined for each time point. Peptide stability was reported as a percentage of the peak area ratio at each time point relative to the peak are ratio of a baseline sample (pre-incubation).
For series [3], the target named is T4, rat PAC1 receptor (rat, UniProt P32215 20-523).
T4 sequence: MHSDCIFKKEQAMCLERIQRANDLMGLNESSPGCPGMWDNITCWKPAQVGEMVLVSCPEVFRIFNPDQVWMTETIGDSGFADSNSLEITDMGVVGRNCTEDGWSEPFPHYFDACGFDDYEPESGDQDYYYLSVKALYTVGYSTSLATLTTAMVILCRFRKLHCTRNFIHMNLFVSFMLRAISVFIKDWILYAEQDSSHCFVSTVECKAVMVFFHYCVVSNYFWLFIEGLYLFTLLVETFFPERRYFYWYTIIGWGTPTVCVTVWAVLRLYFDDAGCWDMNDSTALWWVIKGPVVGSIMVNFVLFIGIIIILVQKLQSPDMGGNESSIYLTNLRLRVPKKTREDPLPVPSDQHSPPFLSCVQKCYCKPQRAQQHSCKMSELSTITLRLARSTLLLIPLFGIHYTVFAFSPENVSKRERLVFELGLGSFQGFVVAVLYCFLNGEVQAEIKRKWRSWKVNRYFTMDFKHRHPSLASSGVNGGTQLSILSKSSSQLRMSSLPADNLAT
The series is described as follows: cell-based or functional assay.
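Throughout, for % Intact Peptide Remaining: peptides incubated in vitro in rat plasma at 37 °C up to 6 h, intact peptide quantified by LC-MS versus internal standard, expressed relative to pre-incubation baseline (100%).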

Description for in vitro: as §1, §2

Molecule `CC[C@H](C)[C@H](NC(=O)[C@H](C)NC(=O)[C@H](CCCCN)NC(=O)[C@H](CCCNC(=N)N)NC(=O)[C@H](Cc1ccccc1)NC(=O)[C@H](CCC(N)=O)NC(=O)[C@@H]1CSSC[C@H](N)C(=O)N[C@@H](CC(=O)O)C(=O)N[C@@H](C)C(=O)N[C@@H]([C@@H](C)O)C(=O)N1)C(=O)N[C@@H](CC(=O)O)C(=O)N[C@@H](CC(=O)O)C(=O)N[C@H]1CSSC[C@@H](C(=O)N[C@@H](CCSC)C(=O)N[C@@H](CCCCN)C(=O)N[C@@H](CCC(N)=O)C(=O)N[C@@H](CCCCN)C(=O)N[C@@H](CCCCN)C(=O)N[C@@H](CCCCN)C(=O)N[C@@H](CCC(=O)O)C(=O)N[C@@H](Cc2ccccc2)C(=O)N[C@@H](CCCCN)C(=O)N[C@@H](C)C(=O)NCC(N)=O)NC(=O)C(C)(C)NC(=O)[C@H](CCCCN)NC(=O)[C@H](Cc2ccccc2)NC(=O)[C@H](C(C)C)NC(=O)[C@H](CO)NC(=O)CNC(=O)[C@@H]2CCCN2C(=O)[C@H](C(C)C)NC(=O)[C@H](CC(N)=O)NC(=O)[C@H](CO)NC(=O)[C@H](Cc2c[nH]cn2)NC(=O)[C@H](Cc2c[nH]cn2)NC(=O)[C@H](C)NC(=O)[C@H](CCC(N)=O)NC(=O)[C@H](CCCCN)NC(=O)[C@H](CCC(N)=O)NC1=O` [SEQ ID NO 283] yielded an IC50 on human PAC1 receptor of 1 to 100 nM. The same molecule showed an IC50 against rat PAC1 receptor [1] of 0.01 to 1 nM. Besides, in the series “in vitro”, the fraction remaining at 0.5 h is 87.5%, the amount remaining at 1 h came out at 112%, the share remaining at 2 h was 101% and the share remaining at 4 h amounted to 115%. In addition, the share remaining at 6 h in the series “in vitro” stood at 98.9%. The “inhibition of MIIBF (dermal blood flow)” value on PAC1 (single bolus i.v., lowest dose of 0.1 mg/kg, 5 min prior to maxadilan, 35 min post peptide treatment) was “statistically significant inhibition”. The “% Intact Peptide Remaining” value in series [2] is recorded as 100%.

Consider “CDATCQFRKAIDDCYYRSWHSNVPGSVFKACMKQKKKEWKAG-NH2 (disulfide 1-5, 14-31) [SEQ ID NO 77]”, for which the IC50 on human PAC1 receptor lay in the range of 0.01 to 1 nM. The IC50 against rat PAC1 receptor [1] was 0.01 to 1 nM. In the series “in vitro”, the amount remaining at 0.5 h was 97.9%, the share remaining at 1 h came to 106%, the share remaining at 2 h came to 104% and the share remaining at 4 h was 89.6%. Moreover, the share remaining at 6 h in the series “in vitro” was 110%. At PAC1 (single bolus s.c., lowest dose of 0.3 mg/kg, 15 min prior to maxadilan, 45 min post peptide treatment), the “inhibition of maxadilan-induced increase in DBF” value is listed as “statistically significant inhibition”. For the same molecule, the “% Intact Peptide Remaining” value in series [2] is 100%.

B1: SEQ ID NO 450 (peptide)
peptide: CDATCQFRKAIDDCARQAYHSFKACMKQKKKEWKH
modifications: disulfide 1-5, 14-25
For the molecule B1, the “rPAC1 IC50 with maxadilan challenge (cAMP assay, RG-2 cells); 100 nM > B ≥ 1 nM” value (“rPAC1 IC50 with maxadilan challenge” for short) with rat PAC1 receptor [3] was below 100 nM.

B2: SEQ ID NO 449 (peptide)
peptide: CDATCQFRKAIDDCARQAYHSACMKQKKKEWKAGH
modifications: disulfide 1-5, 14-23
For the molecule B2, the “rPAC1 IC50 with maxadilan challenge” value in the series with rat PAC1 receptor [3] was below 100 nM.

B3: SEQ ID NO 451 (peptide)
peptide: CDATCQFRKAIDDCARQAYHSFKACMKQKKKEWKAH
modifications: disulfide 1-5, 14-25
On to B3, for which the “rPAC1 IC50 with maxadilan challenge” value with rat PAC1 receptor [3] is below 100 nM.

The record behind these values is patent US20210395313A1, “PEPTIDE PAC1 ANTAGONISTS” (AMGEN INC., priority 2017, published 2021).
